Key:
Format in all cases: cell-based
[1] = biological target: T1, Alpha-1A adrenergic receptor (Homo sapiens, UniProt P35348); test: Displacement of [125I]HEAT from human Alpha-1A adrenergic receptor stably expressed in CHO cells
T1 sequence (P35348 whole entry): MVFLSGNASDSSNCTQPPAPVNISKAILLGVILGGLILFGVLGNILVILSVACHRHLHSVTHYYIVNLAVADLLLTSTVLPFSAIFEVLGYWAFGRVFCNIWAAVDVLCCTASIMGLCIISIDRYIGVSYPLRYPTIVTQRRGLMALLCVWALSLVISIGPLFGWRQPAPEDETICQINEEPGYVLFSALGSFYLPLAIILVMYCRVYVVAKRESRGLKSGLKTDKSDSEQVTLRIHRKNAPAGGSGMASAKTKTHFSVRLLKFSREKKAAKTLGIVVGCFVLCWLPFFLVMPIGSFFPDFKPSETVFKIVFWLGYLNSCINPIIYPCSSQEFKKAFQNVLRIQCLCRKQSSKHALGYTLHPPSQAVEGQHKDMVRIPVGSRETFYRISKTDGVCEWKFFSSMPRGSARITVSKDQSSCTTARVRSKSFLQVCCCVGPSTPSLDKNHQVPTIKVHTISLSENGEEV

[2] = biological target: T2, Alpha-1B adrenergic receptor (Homo sapiens, UniProt P35368); test: Displacement of [125I]HEAT from human Alpha-1B adrenergic receptor stably expressed in LM cells
T2 sequence (P35368 whole entry): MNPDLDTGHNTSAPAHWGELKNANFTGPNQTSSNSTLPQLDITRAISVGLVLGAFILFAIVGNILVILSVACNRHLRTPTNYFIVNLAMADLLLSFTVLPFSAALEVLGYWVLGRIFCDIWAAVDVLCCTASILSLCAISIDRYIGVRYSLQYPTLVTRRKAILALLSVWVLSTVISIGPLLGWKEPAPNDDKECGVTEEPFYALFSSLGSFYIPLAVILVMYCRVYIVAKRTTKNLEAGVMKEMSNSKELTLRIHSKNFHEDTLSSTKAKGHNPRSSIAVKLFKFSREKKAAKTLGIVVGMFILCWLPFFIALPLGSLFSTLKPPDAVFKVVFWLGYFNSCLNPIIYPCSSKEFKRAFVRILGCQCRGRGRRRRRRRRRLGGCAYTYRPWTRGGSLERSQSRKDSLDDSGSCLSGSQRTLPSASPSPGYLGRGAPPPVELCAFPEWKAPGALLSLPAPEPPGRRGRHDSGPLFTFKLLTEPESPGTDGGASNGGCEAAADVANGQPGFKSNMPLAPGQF

[3] = biological target: T3, Alpha-1D adrenergic receptor (Homo sapiens, UniProt P25100); test: Displacement of [125I]HEAT from human Alpha-1D adrenergic receptor stably expressed in HL cells
T3 sequence (P25100 whole entry): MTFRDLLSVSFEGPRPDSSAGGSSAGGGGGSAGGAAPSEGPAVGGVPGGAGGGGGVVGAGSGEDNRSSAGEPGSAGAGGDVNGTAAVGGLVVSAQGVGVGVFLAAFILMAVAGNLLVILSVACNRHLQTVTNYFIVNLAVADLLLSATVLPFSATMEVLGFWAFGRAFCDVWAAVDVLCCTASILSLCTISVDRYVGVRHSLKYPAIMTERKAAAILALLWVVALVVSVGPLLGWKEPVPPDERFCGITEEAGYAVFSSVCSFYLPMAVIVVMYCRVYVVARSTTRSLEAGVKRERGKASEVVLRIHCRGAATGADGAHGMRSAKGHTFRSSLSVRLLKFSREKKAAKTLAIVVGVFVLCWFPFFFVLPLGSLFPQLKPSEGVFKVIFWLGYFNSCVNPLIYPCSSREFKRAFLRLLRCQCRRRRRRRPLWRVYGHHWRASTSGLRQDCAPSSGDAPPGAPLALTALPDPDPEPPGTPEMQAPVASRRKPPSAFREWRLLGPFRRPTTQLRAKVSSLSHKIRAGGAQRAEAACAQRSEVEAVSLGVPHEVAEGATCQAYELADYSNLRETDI

| Compound | Ki [1] [nM] | Ki [2] [nM] | Ki [3] [nM] |
| --- | --- | --- | --- |
| COCC1=C(C(=O)OC)[C@H](c2ccc(F)c(F)c2)N(C(=O)N[C@@H]2CC[C@@H](N3CCN(c4ccccc4C#N)CC3)C2)C(=O)N1 | 0.9 | 14 | 5.4 |
| COCC1=C(C(=O)OC)[C@H](c2ccc(F)c(F)c2)N(C(=O)N[C@@H]2CC[C@@H](N3CCC(C#N)(c4ccccc4)CC3)C2)C(=O)N1 | 0.37 | 210 | 660 |
| COCC1=C(C(=O)OC)[C@H](c2ccc(F)c(F)c2)N(C(=O)N[C@H]2CC[C@@H](N3CCN(c4ccccc4C#N)CC3)C2)C(=O)N1 | 0.44 | 51 | 39 |
| COCC1=C(C(=O)OC)[C@H](c2ccc(F)c(F)c2)N(C(=O)N[C@@H]2CC[C@H](N3CCC(c4ccccn4)CC3)C2)C(=O)N1 | 0.4 | 1300 | 320 |
| COCC1=C(C(=O)OC)[C@H](c2ccc(F)c(F)c2)N(C(=O)N[C@@H]2CC[C@H](N3CCC(c4ccccc4C#N)CC3)C2)C(=O)N1 | 0.24 | 130 | 16 |
| COCC1=C(C(=O)OC)[C@H](c2ccc(F)c(F)c2)N(C(=O)N[C@@H]2CC[C@@H](N3CCC(c4ccccc4C#N)CC3)C2)C(=O)N1 | 0.46 | 91 | 31 |
| COCC1=C(C(=O)OC)[C@H](c2ccc(F)c(F)c2)N(C(=O)N[C@@H]2CC[C@@H](N3CCC(c4ccccn4)CC3)C2)C(=O)N1 | 0.38 | 350 | 500 |
| COCC1=C(C(=O)OC)[C@H](c2ccc(F)c(F)c2)N(C(=O)N[C@H]2CC[C@@H](N3CCC(c4ccccc4C#N)CC3)C2)C(=O)N1 | 0.6 | 70 | 97 |
| COCC1=C(C(=O)OC)[C@H](c2ccc(F)c(F)c2)N(C(=O)N[C@H]2CC[C@H](N3CCC(C#N)(c4ccccc4)CC3)C2)C(=O)N1 | 2.3 | 120 | 95 |
| COCC1=C(C(=O)OC)[C@H](c2ccc(F)c(F)c2)N(C(=O)N[C@H]2CC[C@@H](N3CCC(c4ccccn4)CC3)C2)C(=O)N1 | 4.7 | 290 | 550 |
| COCC1=C(C(=O)OC)[C@H](c2ccc(F)c(F)c2)N(C(=O)N[C@H]2CC[C@@H](N3CCC(C#N)(c4ccccc4)CC3)C2)C(=O)N1 | 2.4 | 730 | 660 |
| COCC1=C(C(=O)OC)[C@H](c2ccc(F)c(F)c2)N(C(=O)N[C@@H]2CC[C@H](N3CCC(C#N)(c4ccccc4)CC3)C2)C(=O)N1 | 1 | 1900 | 620 |
| COCC1=C(C(=O)OC)[C@H](c2ccc(F)c(F)c2)N(C(=O)N[C@@H]2CC[C@H](N3CCN(c4ccccc4C#N)CC3)C2)C(=O)N1 | 1.6 | 28 | 7.5 |
| COCC1=C(C(=O)OC)[C@H](c2ccc(F)c(F)c2)N(C(=O)N[C@H]2CC[C@H](N3CCC(c4ccccc4C#N)CC3)C2)C(=O)N1 | 2.4 | 36 | 11 |
| COCC1=C(C(=O)OC)[C@H](c2ccc(F)c(F)c2)N(C(=O)N[C@H]2CC[C@H](N3CCC(c4ccccn4)CC3)C2)C(=O)N1 | 8.3 | 130 | 170 |
| COCC1=C(C(=O)OC)[C@H](c2ccc(F)c(F)c2)N(C(=O)N[C@H]2CC[C@H](N3CCN(c4ccccc4C#N)CC3)C2)C(=O)N1 | 4.8 | 15 | 9 |
